Here are results for 1 compound from US11421194B2, “Pumpless platform for high-throughput dynamic multicellular culture and chemosensitivity evaluation” (Hackensack Meridian Health Center For Discovery and …, priority 2018, dated 2022).

For this data set, the system named is MM.1S cells. The data set is described as follows: Chemosensitivity evaluation of MM.1S cells to bortezomib in the pumpless culture platform (LIVE/DEAD in situ staining, HCS). Particulars: 4 h treatment, 24 h recovery. The data set is classed as cell-based, human. On the procedure: The high-throughput capability of the pumpless culture platform was evaluated by studying the response of MM.1S cells to bortezomib at four different concentrations (0 nM, 5 nM, 10 nM, 20 nM). Bortezomib is a proteasome inhibitor that induces MM cell apoptosis.^29 Before introducing MM.1S cells, OSB were dynamically cultured for 4 days (in a CO2 incubator at […]). MM.1S cells were pre-labeled with 5 μM cell trace violet (Thermo Fisher Scientific), 10 μL MM.1S with a cell density of 4 million/ml were seeded into culture chambers ([…]). The device was then placed inside a CO2 incubator at 37° C. for 4 h to let MM.1S settle prior to starting the flow. Cells were co-cultured for another 24 h, and then treated with bortezomib for 4 h. After drug treatment, the medium was changed and cultures were allowed to recover for a 24 h period before analyses were conducted. MM.1S alone, cultured in the device but under static conditions were used as control.
Cell viability after treatment and recovery was determine as described above, using LIVE/DEAD Viability/Cytotoxicity Kit (0.1 μM calcein AM & 0.1 μM EthD-1). Culture chambers were scanned using HCS (CellInsight™ CX5, Thermo Fisher Scientific). Cell trace violet^+ calcein AM^+ cells were identified as live MM.1S and cell trace violet^+ EthD-1^+ cells were identified as dead cells, using pre-design CX5 software algorithms (HCS Studio 2.0 Cell Analysis Software) for cell quantification and rapid analysis.
Data quantification was performed automatically using the HCS Studio Software. The percentage of live (cell trace violet^+ calcein AM^+ cells/cell trace violet^+ cells) and dead (cell trace violet^+EthD-1^+/cell trace violet^+ cells) MM.1S cells were plotted against bortezomib concentration.

Molecules are shown by their SMILES.

On to `CC(C)C[C@H](NC(=O)[C@H](Cc1ccccc1)NC(=O)c1cnccn1)B(O)O` [bortezomib], for which the viability at 0.005 µM (Homo sapiens, MM1.S, MM.1S cultured alone, static, bortezomib 5 nM, read-out: viability (percentage of live MM.1S: cell trace violet+ calcein AM+ cells/cell trace violet+ cells)) was ~60%. Moreover, the viability at 0.01 µM (Homo sapiens, MM1.S, MM.1S cultured alone, static, bortezomib 10 nM, read-out: viability (percentage of live MM.1S: cell trace violet+ calcein AM+ cells/cell trace violet+ cells)) is ~15%. Further, where the note is “MM.1S in co-culture with OSB (hFOB 1.19), dynamic culture, bortezomib treatment range 0 nM to 10 nM”, the “viability (percentage of live MM.1S: cell trace violet+ calcein AM+ cells/cell trace violet+ cells)” value is reported as ~70%.
